Experimental data: US20100311741A1, “Bicyclosulfonyl Acid (BCSA) Compounds and Their Use as Therapeutic Agents” (INHIBOX LTD., priority 2007, published 2010)

Legend:
HDAC (HeLa cell extract) = assay: Selectivity assay: HDAC activity, fluorescent assay (Fluor de Lys); assay type: biochemical; settings: single concentration @100 (μM)
Procedure: Alternatively, the activity of the compounds as HDAC inhibitors was determined using a commercially available fluorescent assay kit (Fluor de Lys™, BioMol Research Labs, Inc., Plymouth Meeting, USA). HeLa extract was incubated for 1 hour at 37° C. in assay buffer (25 mM HEPES, 137 mM NaCl, 2.7 mM KCl, 1 mM MgCl2, pH 8.0) with 15 μM acetylated substrate in the presence of test compound (HDAC inhibitor). The extent of deacetylation was determined by the addition of 50 μL of a 1-in-500 dilution of Developer, and subsequent measurement of the fluorescence (excitation 355 nm, emission 460 nm), according to the instructions provided with the kit.
The HeLa cell extract was made from HeLa cells (ATCC Ref. No. CCL-2) by freeze-thawing three times in 60 mM Tris.HCl, pH 8.0, 450 mM NaCl, 30% glycerol. Two cell volumes of extraction buffer were used, and particulate material was centrifuged out (20,800 g, 4° C., 10 minutes). The supernatant extract having deacetylase activity was aliquoted and frozen for storage.
Percent activity (% activity) for each test compound was calculated as:
% activity={(S^C−B)/(S^o−B)}×100
wherein S^C denotes signal measured in the presence of enzyme and the compound being tested, S^o denotes signal measured in the presence of enzyme but in the absence of the compound being tested, and B denotes the background signal measured in the absence of both enzyme and compound being tested. The IC50 corresponds to the concentration which achieves 50% activity.

MMP-1 = target: T1, MMP-1 (Homo sapiens, UniProt P03956); assay: Matrix metalloprotease panel, single concentration; assay type: biochemical
T1 sequence (P03956 100-469): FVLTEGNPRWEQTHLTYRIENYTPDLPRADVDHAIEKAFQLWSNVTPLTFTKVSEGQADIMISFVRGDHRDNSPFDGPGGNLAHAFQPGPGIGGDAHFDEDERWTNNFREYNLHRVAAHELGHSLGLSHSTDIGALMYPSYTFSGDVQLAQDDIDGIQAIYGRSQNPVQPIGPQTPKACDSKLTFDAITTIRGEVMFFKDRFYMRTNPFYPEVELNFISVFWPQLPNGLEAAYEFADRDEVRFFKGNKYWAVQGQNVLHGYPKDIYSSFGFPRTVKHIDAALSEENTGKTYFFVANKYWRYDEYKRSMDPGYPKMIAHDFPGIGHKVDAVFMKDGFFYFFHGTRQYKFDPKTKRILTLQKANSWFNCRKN
Procedure: (§1) Several compounds were tested at a single concentration against a panel of matrix metalloproteases including angiotensin converting enzyme (ACE) and the percentage inhibition determined.

MMP-10 = MMP-10 (Homo sapiens, UniProt P09238); assay: Matrix metalloprotease panel, single concentration; assay type: biochemical
MMP-10, sequence (P09238 99-476, species assumed): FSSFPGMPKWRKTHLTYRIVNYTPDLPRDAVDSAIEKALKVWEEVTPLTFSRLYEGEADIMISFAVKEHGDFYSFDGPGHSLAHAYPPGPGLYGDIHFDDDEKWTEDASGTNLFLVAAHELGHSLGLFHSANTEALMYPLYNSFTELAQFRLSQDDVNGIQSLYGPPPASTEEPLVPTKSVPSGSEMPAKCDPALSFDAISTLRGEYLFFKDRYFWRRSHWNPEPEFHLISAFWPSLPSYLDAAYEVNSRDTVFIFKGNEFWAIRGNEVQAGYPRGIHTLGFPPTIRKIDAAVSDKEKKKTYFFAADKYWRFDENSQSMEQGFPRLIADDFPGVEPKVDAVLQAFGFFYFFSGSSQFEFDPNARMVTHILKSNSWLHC
Procedure: as §1

MMP-12 = MMP-12 (Homo sapiens, UniProt P39900); assay: Matrix metalloprotease panel, single concentration; assay type: biochemical
MMP-12, sequence (P39900 106-470, species assumed): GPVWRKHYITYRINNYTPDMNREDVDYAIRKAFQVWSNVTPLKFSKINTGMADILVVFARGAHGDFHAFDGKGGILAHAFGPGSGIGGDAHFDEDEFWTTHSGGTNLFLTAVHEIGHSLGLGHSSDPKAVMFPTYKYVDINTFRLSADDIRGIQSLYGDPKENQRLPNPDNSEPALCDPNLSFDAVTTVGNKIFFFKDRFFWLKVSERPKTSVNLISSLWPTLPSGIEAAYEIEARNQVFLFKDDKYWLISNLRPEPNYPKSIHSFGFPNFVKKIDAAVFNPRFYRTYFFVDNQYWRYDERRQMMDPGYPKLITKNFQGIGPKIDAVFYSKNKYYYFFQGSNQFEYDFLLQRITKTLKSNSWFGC
Procedure: as §1

MMP-13 = MMP-13 (Homo sapiens, UniProt P45452); assay: Matrix metalloprotease panel, single concentration; assay type: biochemical
Procedure: as §1

MMP-14 = MMP-14 (Homo sapiens, UniProt P50281); assay: Matrix metalloprotease panel, single concentration; assay type: biochemical
Procedure: as §1

MMP-2 = target: T2, MMP-2 (Homo sapiens, UniProt P08253); assay: Matrix metalloprotease panel, single concentration; assay type: biochemical
T2 sequence (P08253 110-660): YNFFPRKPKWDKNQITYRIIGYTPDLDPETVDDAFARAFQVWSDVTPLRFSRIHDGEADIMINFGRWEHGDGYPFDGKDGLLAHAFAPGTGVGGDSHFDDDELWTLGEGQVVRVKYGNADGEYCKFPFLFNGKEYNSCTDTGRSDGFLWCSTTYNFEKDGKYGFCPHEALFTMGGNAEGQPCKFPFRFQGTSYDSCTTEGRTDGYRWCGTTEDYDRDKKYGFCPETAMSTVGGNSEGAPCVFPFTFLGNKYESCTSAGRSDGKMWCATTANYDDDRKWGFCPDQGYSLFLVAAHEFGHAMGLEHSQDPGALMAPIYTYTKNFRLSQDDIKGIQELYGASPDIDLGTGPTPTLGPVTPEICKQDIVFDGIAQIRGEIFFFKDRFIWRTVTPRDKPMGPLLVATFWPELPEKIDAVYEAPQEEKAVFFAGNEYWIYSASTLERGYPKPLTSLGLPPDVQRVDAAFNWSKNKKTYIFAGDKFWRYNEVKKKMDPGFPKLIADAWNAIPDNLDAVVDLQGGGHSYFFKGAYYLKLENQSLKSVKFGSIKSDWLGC
Procedure: as §1

MMP-3 = MMP-3 (Homo sapiens, UniProt P08254); assay: Matrix metalloprotease panel, single concentration; assay type: biochemical
MMP-3, sequence (P08254 100-477, species assumed): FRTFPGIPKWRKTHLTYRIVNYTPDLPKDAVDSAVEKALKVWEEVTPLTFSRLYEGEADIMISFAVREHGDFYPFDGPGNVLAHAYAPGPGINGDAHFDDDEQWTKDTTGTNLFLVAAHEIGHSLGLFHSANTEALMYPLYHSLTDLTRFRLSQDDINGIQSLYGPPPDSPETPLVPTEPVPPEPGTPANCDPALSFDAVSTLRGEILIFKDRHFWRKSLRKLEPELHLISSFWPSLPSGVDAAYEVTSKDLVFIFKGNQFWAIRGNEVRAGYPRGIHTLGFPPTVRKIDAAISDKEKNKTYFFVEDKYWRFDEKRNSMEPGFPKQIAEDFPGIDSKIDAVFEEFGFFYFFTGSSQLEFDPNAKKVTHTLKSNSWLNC
Procedure: as §1

MMP-7 = target: T3, MMP-7 (Homo sapiens, UniProt P09237); assay: Matrix metalloprotease panel, single concentration; assay type: biochemical
T3 sequence (P09237 95-267): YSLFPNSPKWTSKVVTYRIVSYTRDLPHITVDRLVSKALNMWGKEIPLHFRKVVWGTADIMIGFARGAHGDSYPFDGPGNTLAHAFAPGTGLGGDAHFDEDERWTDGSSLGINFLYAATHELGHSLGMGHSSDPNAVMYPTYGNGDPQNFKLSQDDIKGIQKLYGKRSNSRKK
Procedure: as §1

MMP-8 = MMP-8 (Homo sapiens, UniProt P22894); assay: Matrix metalloprotease panel, single concentration; assay type: biochemical
MMP-8, sequence (P22894 101-467, species assumed): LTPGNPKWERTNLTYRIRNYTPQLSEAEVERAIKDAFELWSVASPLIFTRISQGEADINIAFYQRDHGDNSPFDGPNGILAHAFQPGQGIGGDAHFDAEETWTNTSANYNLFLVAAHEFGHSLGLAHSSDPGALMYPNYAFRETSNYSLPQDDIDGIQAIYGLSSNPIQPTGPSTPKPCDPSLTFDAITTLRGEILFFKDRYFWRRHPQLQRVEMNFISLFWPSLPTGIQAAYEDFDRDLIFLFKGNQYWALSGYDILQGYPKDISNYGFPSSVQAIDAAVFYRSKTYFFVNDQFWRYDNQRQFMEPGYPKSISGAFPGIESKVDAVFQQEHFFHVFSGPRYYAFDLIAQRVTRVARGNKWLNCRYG
Procedure: as §1

MMP-9 = MMP-9 (Homo sapiens, UniProt P14780); assay: Matrix metalloprotease panel, single concentration; assay type: biochemical
MMP-9, sequence (P14780 94-707, species assumed): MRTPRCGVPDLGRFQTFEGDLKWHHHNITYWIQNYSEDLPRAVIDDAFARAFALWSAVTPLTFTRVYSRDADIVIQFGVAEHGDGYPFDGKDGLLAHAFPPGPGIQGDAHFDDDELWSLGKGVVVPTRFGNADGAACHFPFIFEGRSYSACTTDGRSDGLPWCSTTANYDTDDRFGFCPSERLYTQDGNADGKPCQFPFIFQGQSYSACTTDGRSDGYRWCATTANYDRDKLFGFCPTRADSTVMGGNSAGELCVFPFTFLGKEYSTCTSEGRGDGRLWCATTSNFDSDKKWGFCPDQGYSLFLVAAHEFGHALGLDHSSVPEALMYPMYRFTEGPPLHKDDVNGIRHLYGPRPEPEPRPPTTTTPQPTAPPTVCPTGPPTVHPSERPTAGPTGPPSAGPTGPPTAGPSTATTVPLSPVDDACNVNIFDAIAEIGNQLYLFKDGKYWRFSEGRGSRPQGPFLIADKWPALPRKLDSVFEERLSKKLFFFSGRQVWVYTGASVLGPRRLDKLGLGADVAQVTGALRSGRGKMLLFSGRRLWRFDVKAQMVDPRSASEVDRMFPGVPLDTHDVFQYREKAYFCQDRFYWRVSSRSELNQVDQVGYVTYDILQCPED
Procedure: as §1

[1] = target: angiotensin converting enzyme (ACE) (Homo sapiens, UniProt P12821); assay: Matrix metalloprotease panel, single concentration; assay type: biochemical
angiotensin converting enzyme (ACE), sequence (P12821 30-1306, species assumed): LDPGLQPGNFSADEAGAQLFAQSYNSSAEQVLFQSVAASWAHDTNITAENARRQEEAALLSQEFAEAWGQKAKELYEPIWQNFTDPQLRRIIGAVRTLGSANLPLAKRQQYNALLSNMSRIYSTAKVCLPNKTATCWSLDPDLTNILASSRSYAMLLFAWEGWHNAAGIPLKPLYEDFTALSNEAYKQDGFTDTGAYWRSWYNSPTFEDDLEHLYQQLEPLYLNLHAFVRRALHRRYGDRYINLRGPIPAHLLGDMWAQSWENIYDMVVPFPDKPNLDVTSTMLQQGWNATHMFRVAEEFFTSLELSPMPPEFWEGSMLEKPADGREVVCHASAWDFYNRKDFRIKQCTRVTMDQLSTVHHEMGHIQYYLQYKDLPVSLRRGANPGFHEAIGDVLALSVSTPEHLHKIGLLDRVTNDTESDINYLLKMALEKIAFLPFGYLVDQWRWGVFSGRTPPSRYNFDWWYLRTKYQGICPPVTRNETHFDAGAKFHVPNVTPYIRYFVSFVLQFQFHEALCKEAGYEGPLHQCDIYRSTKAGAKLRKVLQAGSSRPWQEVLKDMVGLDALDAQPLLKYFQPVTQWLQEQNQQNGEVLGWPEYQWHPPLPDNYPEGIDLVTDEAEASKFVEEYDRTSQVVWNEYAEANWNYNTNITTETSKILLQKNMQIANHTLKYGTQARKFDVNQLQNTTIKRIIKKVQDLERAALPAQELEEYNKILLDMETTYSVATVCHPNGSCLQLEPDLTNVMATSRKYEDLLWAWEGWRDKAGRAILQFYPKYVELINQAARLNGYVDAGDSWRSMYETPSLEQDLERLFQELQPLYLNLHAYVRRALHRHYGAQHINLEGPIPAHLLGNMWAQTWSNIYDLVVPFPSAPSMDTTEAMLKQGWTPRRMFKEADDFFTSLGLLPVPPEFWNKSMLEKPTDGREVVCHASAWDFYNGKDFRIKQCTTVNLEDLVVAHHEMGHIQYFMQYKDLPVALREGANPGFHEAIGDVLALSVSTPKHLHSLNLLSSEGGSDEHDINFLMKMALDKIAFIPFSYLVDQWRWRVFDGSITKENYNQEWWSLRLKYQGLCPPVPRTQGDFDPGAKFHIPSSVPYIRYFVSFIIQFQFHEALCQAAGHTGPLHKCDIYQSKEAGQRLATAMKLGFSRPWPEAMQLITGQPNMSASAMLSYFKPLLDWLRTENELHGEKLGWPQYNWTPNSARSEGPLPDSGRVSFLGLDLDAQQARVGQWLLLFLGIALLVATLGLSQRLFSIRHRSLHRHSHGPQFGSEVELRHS
Procedure: as §1

| inhibition at 5 µM (MMP-1) | inhibition at 5 µM (MMP-10) | inhibition at 5 µM (MMP-12) | inhibition at 5 µM (MMP-13) | inhibition at 5 µM (MMP-14) | inhibition at 5 µM (MMP-2) | inhibition at 5 µM (MMP-3) | inhibition at 5 µM (MMP-7) | inhibition at 5 µM (MMP-8) | inhibition at 5 µM (MMP-9) | inhibition at 5 µM [1] | melting point | Structure (SMILES) | Av. HDAC Inhibition, % @100 (HDAC (HeLa cell extract)) |
| --- | --- | --- | --- | --- | --- | --- | --- | --- | --- | --- | --- | --- | --- |
| 0% | 0% | 56% | 24% | 2% | 19% | 1% | 0% | 30% | 19% | 6% |  | O=C(CC1c2ccccc2S(=O)(=O)N1c1ccccc1)NO (stereo not shown) [IX-001] | 10%@100 |
| -4% | 6% | 37% | -12% | 0% | 10% | 11% | -5% | 21% | -2% | -8% |  | CC#CCOc1ccc(N2C(CC(=O)NO)c3ccccc3S2(=O)=O)cc1 (stereo not shown) [IX-045] | 38%@100 |
| 6% | 9% | 49% | -10% | 4% | -3% | 34% | 31% | 13% | -8% | -4% | 195 to 197 °C | Cc1cc(COc2ccc(N3C(CC(=O)NO)c4ccccc4S3(=O)=O)cc2)c2ccccc2n1 (stereo not shown) [IX-048] | 19%@100 |
